Assay results taken from US4015974A, “Amido phosphorothiolates” (priority 1972, dated 1977).

Legend:
Assay type in all cases: in vivo
[1] = test system: barnyard grass (Echinochloa crus-galli); assay: Water application, herbicidal effect on barnyard grass (Table 2); parameters: key: 0: not damaged; 5: completely killed; conditions: 25 days, score 0-5
How it was run: (§1)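 Under water-lodged conditions, wettable-powder test compounds are applied to paddy soil carrying transplanted rice (3-leaf) and sown barnyard grass. Activity on these and on spontaneously emerged broad-leaved weeds is graded 0 to 5 twenty-five days later.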

[2] = test system: large crabgrass (Digitaria sanguinalis); assay: Pre-emergence application, herbicidal effect on large crabgrass (Table 1); parameters: key: 0: not damaged; 5: completely killed; conditions: 20 days after application, score 0-5
How it was run: (§2)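 Pre-emergence soil application of wettable powders diluted in water over covered seeds (~10 cm pots). Greenhouse growth; visual 0–5 rating (0 none, 5 dead) at 20 days.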

[3] = test system: common lambsquarter (Chenopodium album); assay: Pre-emergence application, herbicidal effect on common lambsquarter (Table 1); parameters: key: 0: not damaged; 5: completely killed; conditions: 20 days after application, score 0-5
How it was run: as §2

[4] = test system: barnyard grass (Echinochloa crus-galli); assay: Pre-emergence application, herbicidal effect on barnyard grass (Table 1); parameters: key: 0: not damaged; 5: completely killed; conditions: 20 days after application, score 0-5
How it was run: as §2

[5] = test system: broad-leaved weeds, e.g., monochoria, false pimpernel and toothcup; assay: Water application, herbicidal effect on broad-leaved weeds (Table 2); parameters: key: 0: not damaged; 5: completely killed; conditions: 25 days, score 0-5
How it was run: as §1

[6] = test system: radish; assay: Pre-emergence application, herbicidal effect on radish (Table 1); parameters: key: 0: not damaged; 5: completely killed; conditions: 20 days after application, score 0-5
How it was run: as §2

[7] = test system: redroot pigweed (Amaranthus retroflexus); assay: Pre-emergence application, herbicidal effect on redroot pigweed (Table 1); parameters: key: 0: not damaged; 5: completely killed; conditions: 20 days after application, score 0-5
How it was run: as §2

[8] = test system: common purslane (Portulaca oleracea); assay: Pre-emergence application, herbicidal effect on common purslane (Table 1); parameters: key: 0: not damaged; 5: completely killed; conditions: 20 days after application, score 0-5
How it was run: as §2

[9] = test system: rice; assay: Water application, phytotoxicity on rice (Table 2); parameters: key: 0: no effect; 1: very slightly affected; 2: slightly affected; 3: moderately affected; 4: considerably affected; 5: completely killed; conditions: 25 days, score 0-5
How it was run: as §1

[10] = test system: nematode; assay: Effect on nematode (Table 7); parameters: tested at 500 ppm; conditions: 500 p.p.m., 24 hours
Experimental: 0.5 ml. of a nematode-containing aqueous solution separated from food according to Baermann's method was placed in a test tube with ground stopper containing 0.5 ml. of an aqueous dilute solution of each emulsifiable concentrates of the present compounds. The concentration of the active ingredient in the mixture was adjusted to 500 p.p.m. After 24 hours, the death and alive were observed microscopically to calculate the mortality.

Compound	Herbicidal effects, barnyard grass ([1]; 10 g/a)	Herbicidal effects, barnyard grass ([1]; 20 g/a)	Herbicidal effects, barnyard grass ([1]; 40 g/a)	Herbicidal effect, large crabgrass ([2]; 10 g./a.)	Herbicidal effect, large crabgrass ([2]; 20 g./a.)	Herbicidal effect, large crabgrass ([2]; 40 g./a.)	Herbicidal effect, common lambsquarter ([3]; 10 g./a.)	Herbicidal effect, common lambsquarter ([3]; 20 g./a.)	Herbicidal effect, common lambsquarter ([3]; 40 g./a.)	Herbicidal effect, barnyard grass ([4]; 10 g./a.)	Herbicidal effect, barnyard grass ([4]; 20 g./a.)	Herbicidal effect, barnyard grass ([4]; 40 g./a.)	Herbicidal effects, broad-leaved weeds ([5]; 10 g/a)	Herbicidal effects, broad-leaved weeds ([5]; 20 g/a)	Herbicidal effects, broad-leaved weeds ([5]; 40 g/a)	Herbicidal effect, radish ([6]; 10 g./a.)	Herbicidal effect, radish ([6]; 20 g./a.)	Herbicidal effect, radish ([6]; 40 g./a.)	Herbicidal effect, redroot pigweed ([7]; 10 g./a.)	Herbicidal effect, redroot pigweed ([7]; 20 g./a.)	also measured
CCCOP(=O)(SCC(=O)N1CCCCC1CC)SC(C)CC (centres unmarked) [Compound 87]	5	5	5	5	5	5	3	3	5	5	5	5	5	5	5	0	0	0	3	4	Herbicidal effect, redroot pigweed ([7]; 40 g./a.): 5; Herbicidal effect, common purslane ([8]; 10 g./a.): 3; Herbicidal effect, common purslane ([8]; 20 g./a.): 4; Herbicidal effect, common purslane ([8]; 40 g./a.): 5; Phytotoxicity on rice ([9]; 10 g/a): 0; Phytotoxicity on rice ([9]; 20 g/a): 0; Phytotoxicity on rice ([9]; 40 g/a): 0
C=C(Cl)CSP(=O)(OCC)SCC(=O)N1CCCCC1CC (centres unmarked) [Compound 82]	5	5	5	5	5	5	4	4	5	5	5	5	5	5	5	0	0	1	4	4	Herbicidal effect, redroot pigweed ([7]; 40 g./a.): 5; Herbicidal effect, common purslane ([8]; 10 g./a.): 3; Herbicidal effect, common purslane ([8]; 20 g./a.): 4; Herbicidal effect, common purslane ([8]; 40 g./a.): 5; Phytotoxicity on rice ([9]; 10 g/a): 0; Phytotoxicity on rice ([9]; 20 g/a): 0; Phytotoxicity on rice ([9]; 40 g/a): 2
ClC=CCCl [Dichloropropene, reference compound]																					Mortality [10]: 79.3%
CCCCOP(=O)(SCC)SCC(=O)N1CCCCC1C (centres unmarked) [Compound 15]	5	5	5	5	5	5	4	5	5	5	5	5	5	5	5	0	0	0	4	5	Herbicidal effect, redroot pigweed ([7]; 40 g./a.): 5; Herbicidal effect, common purslane ([8]; 10 g./a.): 5; Herbicidal effect, common purslane ([8]; 20 g./a.): 5; Herbicidal effect, common purslane ([8]; 40 g./a.): 5; Phytotoxicity on rice ([9]; 10 g/a): 0; Phytotoxicity on rice ([9]; 20 g/a): 0; Phytotoxicity on rice ([9]; 40 g/a): 0
C#CCSP(=O)(OCC)SCC(=O)N1CCCCC1C (centres unmarked) [Compound 33]																					Mortality [10]: 100%
CCCOP(=O)(SCCC)SCC(=O)N1CCCCC1CC (centres unmarked) [Compound 85]	5	5	5	5	5	5	5	5	5	5	5	5	5	5	5	0	0	0	5	5	Herbicidal effect, redroot pigweed ([7]; 40 g./a.): 5; Herbicidal effect, common purslane ([8]; 10 g./a.): 5; Herbicidal effect, common purslane ([8]; 20 g./a.): 5; Herbicidal effect, common purslane ([8]; 40 g./a.): 5; Phytotoxicity on rice ([9]; 10 g/a): 0; Phytotoxicity on rice ([9]; 20 g/a): 0; Phytotoxicity on rice ([9]; 40 g/a): 0
